Data as given in patent publication US20170218375A1, “MORPHOLINOS, MORPHOLINO UPREGULATING, AND ASSOCIATED METHODS” (University of Utah Research Foundation, priority 2011, published 2017).
{Dendrimer} = dendrimer conjugate (vivo-morpholino)

Experiments:
[1] = system: laser-induced choroidal neovascularization (CNV); assay: Laser-induced choroidal neovascularization (CNV) in mouse; format: in vivo
Description: It was also examined whether moVEGFR2_MOe13 inhibits laser-induced choroidal neovascularization (CNV). Each morpholino or DPBS was injected intravitreously on day 1 and day 4 after laser photocoagulation, and laser CNV volumes were examined on day 7. […] Vessel endothelial cells were stained with Alexa fluor488 conjugated isolectin GS-IB4. […] After photocoagulation, on day 1 and day 4, 2 ul of 100 ng/μl STD_MO, 500 ng/μl Goat IgG (AB-108-C, R&D Systems, Minneapolis, Minn.), 100 ng/μl moVEGFR2_MOe13, 500 ng/μl Goat Anti-mouse VEGF-A IgG (AF-493-NA, R&D Systems, Minneapolis, Minn.) or 2 ng/μl SU1498 (572888, EMD chemicals, Gibbstown, N.J.) was injected intravitreously. On day 7, CNV volumes were measured by confocal microscope. n=14-20 for each group. Risk factors (p-value) were calculated by two-tail student's t-test (*: p<0.05, **p<0.01). Error bar is ±s.e.m.
Each morpholino oligomer was purchased from Gene Tools (Philomath, Oreg.). The sequences of each morpholino oligomer and primers for PCR are listed in supplemental Table. HUVECs (Lonza, Walkersville, Md.) were cultured in EBM with EGM SingleQuot Kit supplements and growth factors according to the manufacturer's instructions (Lonza, Walkersville, Md.). MS-1 cells, a mouse endothelial cell line (ATCC, Manassas, Va.) were cultured in 5% FBS/DMEM. Morpholino oligomers were delivered to the nucleus by nucleofection (Amaxa, Gaithersburg, Md.) with a Basic Nucleofector Kit for Primary Mammalian Endothelial Cells (Amaxa, Gaithersburg, Md.) using program A-034 for HUVEC and MS-1 cells. For each nucleofection, 1×10^6 cells were used and plated on a 6-well plate. After 2 days of culture, cells were trypsinized and total RNA was extracted using a RNeasy mini kit (Qiagen, Valencia, Calif.) with DNaseI treatment. Detection of mbVEGFR2 was achieved by flow cytometry. […] The cells were washed three times and fluorescence was detected by a FACScan Analyzer (BD Biosciences, San Jose, Calif.). […]

mbVEGFR2 mRNA = assay: RT-PCR of mbVEGFR2 mRNA in mouse MS-1 cell line; format: cell-based
Text: Because VEGFR2_MOe13 decreases mbVEGFR2 and increases sVEGFR2, it is expected that VEGFR2_MOe13 can inhibit angiogenesis and lymphangiogenesis in vivo. To study the effect of VEGFR2_MOe13 in animal models, moVEGFR2_MOe13 was created that targets the exon13-intron13 junction of the mouse VEGFR2 gene. By RT-PCR analysis, it was found moVEGFR2_MOe13 increased sVEGFR2 mRNA and decreased mbVEGFR2 mRNA in the mouse MS-1 cell line (FIG. 7A). […] FIGS. 7(f, g) show the mean area of corneal neovascularization and lymphangiogenesis respectively (n=13-16). Risk factors (p-value) were calculated by two-tail student's t-test (*: p<0.05, **p<0.01, ***p<0.001). Error bar is ±s.e.m.
Each morpholino oligomer was purchased from Gene Tools (Philomath, Oreg.). The sequences of each morpholino oligomer and primers for PCR are listed in supplemental Table. […] The cells were washed three times and fluorescence was detected by a FACScan Analyzer (BD Biosciences, San Jose, Calif.). […]
cDNAs were synthesized from 400 ng total RNA using Omniscript RT kit (Qiagen, Valencia, Calif.) and Oligo-dT primer(dT20) according to the manufacturer's instructions. Real-time PCR was performed using QuantiTect SYBR Green PCR Kit (Qiagen, Valencia, Calif.) and 1 μl of cDNA. […]

Substance: 5′-cacccagggatgcctccatacCTAG-3′ (antisense CACCCAGGGATGCCTCCATACCTAG; all phosphorodiamidate morpholino (PMO), 3' {Dendrimer}) [moVEGFR2_MOe13, morpholino that targets the exon13-intron13 junction of the mouse VEGFR2 gene; in vivo conjugated with a dendrimer (vivo-morpholino)]
- suppression of CNV compared with anti-VEGF-A IgG and SU1498 (FIG. 9) ([1]; 2 μl intravitreously day 1 and day 4: 100 ng/μl moVEGFR2_MOe13, 500 ng/μl anti-mouse VEGF-A IgG, 2 ng/μl SU1498, CNV volume day 7): comparable
- laser CNV volume ([1]; intravitreous injection on day 1 and day 4 after laser photocoagulation, volume on day 7, compared with STD_MO (p<0.05) and DPBS (p<0.01)): significantly suppressed
- mbVEGFR2 mRNA by RT-PCR (mbVEGFR2 mRNA): decreased
